The test system of data set [1] is MOLM-13 cells. Briefly: Cell viability assay in MOLM-13 cells. It counts as cell-based. The conditions noted are these: Homo sapiens, read-out: IC50 (cytotoxicity). Here is the method:
(§1) Viability Assay: 10,000 cells (e.g., MOLM-13 cells, MLL-AF9 leukemic cells or normal BM cells) were plated onto flat-bottom 96-well plates in media with increasing concentration of compound up to 100 µM. Cells were cultured for 72 h at 37° C. in a 5% CO2 incubator. For measuring viability, Cell-Titer Glo kit (Promega) or MTT kit was used following manufacturer's instructions. For Cell-Titer Glo assay, cells were cooled to room temperature for 20-30 min, 100 μL of the cultured cells were transferred to opaque-white bottom 96-well plates and mixed with 100 μL of Cell-Titer Glo reagent. The mixture was incubated for 15 min at room temperature and read using a Synergy H1 Hybrid reader (BioTek) for luminescence. Data was normalized as percentage viability and graphed by non-linear regression curves in Graph Pad PRISM 7.0.

Data set [2] in a line: In vitro solubility in DMSO. It counts as physicochemical.
For data set [3], the system named is DLBCL cell line OCI-LY3. Briefly: 5-day MTT assay in OCI-LY3 cells. The format is cell-based. The following applies: OCI-LY3, 5-day MTT assay. The protocol:
as §1, with “[…]. […]” for “µM. Cells were cultured for 72 h at 37° C. in a 5% CO2 incubator.”
On the technique in general: Tetrazolium dyes change colour on reduction, which living cells bring about.

In data set [4] the target is T1, GSPT1 (Homo sapiens, UniProt P15170+Q96SW2). Nature of the data set: Flow cytometry for measuring degradation, HEK293T GFP-POI reporter cells (GSPT1). It counts as cell-based. Set-up: expressed in transfected cells; host or cells: HEK293T. The conditions noted are these: 24 h, HEK293T GFP reporter. Background: Flow cytometry measures light scatter and fluorescence of single cells or particles in a stream.
T1 sequence (P15170 whole entry): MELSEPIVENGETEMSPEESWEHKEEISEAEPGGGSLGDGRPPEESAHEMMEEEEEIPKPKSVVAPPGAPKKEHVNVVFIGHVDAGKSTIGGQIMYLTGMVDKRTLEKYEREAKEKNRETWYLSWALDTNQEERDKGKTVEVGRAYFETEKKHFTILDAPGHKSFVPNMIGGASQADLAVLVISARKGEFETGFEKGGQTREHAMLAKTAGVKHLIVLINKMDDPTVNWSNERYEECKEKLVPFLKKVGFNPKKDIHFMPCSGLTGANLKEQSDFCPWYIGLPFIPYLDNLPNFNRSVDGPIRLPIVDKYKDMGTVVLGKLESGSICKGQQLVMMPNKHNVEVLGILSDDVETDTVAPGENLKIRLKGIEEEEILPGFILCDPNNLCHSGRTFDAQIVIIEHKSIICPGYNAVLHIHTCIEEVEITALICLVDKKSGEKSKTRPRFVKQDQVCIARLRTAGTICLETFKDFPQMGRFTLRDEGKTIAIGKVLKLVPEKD
T1 sequence (Q96SW2 whole entry): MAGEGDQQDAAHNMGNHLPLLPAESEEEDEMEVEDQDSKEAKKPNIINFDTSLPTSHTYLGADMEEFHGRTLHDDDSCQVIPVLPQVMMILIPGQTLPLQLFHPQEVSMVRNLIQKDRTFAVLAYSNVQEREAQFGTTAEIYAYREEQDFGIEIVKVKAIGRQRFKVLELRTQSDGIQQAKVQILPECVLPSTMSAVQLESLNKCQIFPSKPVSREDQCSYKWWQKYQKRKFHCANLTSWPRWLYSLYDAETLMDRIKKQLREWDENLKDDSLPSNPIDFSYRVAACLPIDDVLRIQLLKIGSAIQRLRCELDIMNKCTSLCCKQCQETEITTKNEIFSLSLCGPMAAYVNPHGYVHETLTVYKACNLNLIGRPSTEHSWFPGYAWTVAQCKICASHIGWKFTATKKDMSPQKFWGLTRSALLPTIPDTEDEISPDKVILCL
T1 sequence (Q16531 whole entry partner): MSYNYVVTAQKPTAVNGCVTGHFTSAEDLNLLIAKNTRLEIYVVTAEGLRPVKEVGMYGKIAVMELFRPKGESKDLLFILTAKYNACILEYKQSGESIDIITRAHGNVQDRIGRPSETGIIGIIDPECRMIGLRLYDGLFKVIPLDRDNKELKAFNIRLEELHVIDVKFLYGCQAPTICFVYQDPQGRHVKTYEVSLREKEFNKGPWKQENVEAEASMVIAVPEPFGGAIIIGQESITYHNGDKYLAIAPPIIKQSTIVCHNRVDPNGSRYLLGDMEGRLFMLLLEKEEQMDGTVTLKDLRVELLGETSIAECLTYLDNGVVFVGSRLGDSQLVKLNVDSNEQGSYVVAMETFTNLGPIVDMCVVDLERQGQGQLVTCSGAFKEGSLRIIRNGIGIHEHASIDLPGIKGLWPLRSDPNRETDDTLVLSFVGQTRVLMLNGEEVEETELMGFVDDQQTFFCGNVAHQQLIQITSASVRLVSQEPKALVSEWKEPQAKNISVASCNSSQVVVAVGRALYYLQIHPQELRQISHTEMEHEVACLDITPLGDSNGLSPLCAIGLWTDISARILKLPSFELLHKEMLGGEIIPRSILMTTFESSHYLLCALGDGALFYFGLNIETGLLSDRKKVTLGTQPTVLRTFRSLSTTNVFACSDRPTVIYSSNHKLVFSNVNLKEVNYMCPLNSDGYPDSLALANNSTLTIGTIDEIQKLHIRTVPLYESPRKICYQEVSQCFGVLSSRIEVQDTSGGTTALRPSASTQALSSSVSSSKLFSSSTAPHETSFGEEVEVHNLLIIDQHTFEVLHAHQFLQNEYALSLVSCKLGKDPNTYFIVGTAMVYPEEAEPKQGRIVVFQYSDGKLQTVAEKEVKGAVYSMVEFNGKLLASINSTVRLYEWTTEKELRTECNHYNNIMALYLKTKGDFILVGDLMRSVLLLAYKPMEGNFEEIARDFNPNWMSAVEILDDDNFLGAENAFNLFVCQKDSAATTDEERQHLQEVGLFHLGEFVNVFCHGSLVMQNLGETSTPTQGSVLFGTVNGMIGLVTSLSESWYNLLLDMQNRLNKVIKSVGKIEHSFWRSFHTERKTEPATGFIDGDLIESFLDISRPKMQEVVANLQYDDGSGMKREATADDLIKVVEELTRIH

A short description of data set [5]: In vitro metabolic stability. It counts as in vitro ADME. The conditions noted are these: read-out: in vitro metabolic stability t1/2.
Data set [6] in a line: Toxicity in hematopoietic system of Crbn^1391V mice. It counts as in vivo. The conditions noted are these: four rounds, 223 mg/kg weekly. Here is the method: (§2) In vivo drug administration in MLL-AF9 and PDX mouse model: A total of 250,000 of MLL-AF9 BM secondary mouse leukemia cells were injected retroorbitally into 6-8 weeks-old female C57BL/6 recipient mice that has been sublethally irradiated at 450 cGy. For AML PDX model, 1 million PDX cells were transplanted by intravenous injection into 8-10 weeks old female NSG mice that had been sublethally irradiated at 200 rads 24 hr before transplant. […] DEG-77 was treated at 223 mg/kg in DMSO in 50 ul volume. Mice weight was monitored every day to check for toxicity. Mice were sacrificed when moribund, and organ weights were measured for disease burden. Spleen and bone marrow cells were isolated and processed for western blot analysis. All animal studies were performed on animal protocols approved by the Institutional Animal Care and Use Committee (IACUC) at Memorial Sloan Kettering Cancer Center. […] Plasma was extracted from each mouse after indicated time and DEG-35 in plasma was measured using HPLC. For examining the toxicity of DEG-77 in the hematopoietic system of Crbn^1391V mice, four rounds of DMSO or 223 mg/kg DEG-77 was treated in 8-12 weeks old female Crbn^1391V mice. Mice were injected once a week and were sacrificed 4 weeks later for blood analysis using the Element HT5 Hematology Analyzer (HESKA) and analysis of the hematopoietic cells by flow cytometry.

In data set [7] the test system is MLL-AF9 Crbn^1391V cells. Briefly: Survival of BL6 mice transplanted with MLL-AF9 Crbn^1391V cells. It counts as in vivo. The following applies: 223 mg/kg once per week. The protocol: Generation of MLL-AF9 Crbn^1391V leukemic cells: Lin-Sca+ Kit+ (LSK) cells were isolated from bone marrow cells of wildtype or Crbn^1391V mice that were 6 to 8 weeks old. Briefly, bone marrow cells were enriched for c-Kit positive cells by incubating with CD117/c-Kit microbeads and then processed through the autoMACS Pro Separator (Miltenyi Biotec), following the manufacturer's instructions. CKit enriched cells were stained with Lineage antibody cocktail (CD3, CD4, CD8, Gr1, B220, CD19, TER119 conjugated with PeCy5), Scal-Pac Blue, CD34-FITC, SLAM-APC, CD48-PE, and c-KIT-APC-Cy7. After staining, cells were sorted for LSK cells using a BD FACS Aria II instrument. Sorted LSK cells were incubated overnight in Stemspan SFEM medium (Stem Cell Technologies) with 10 ng/ml IL-3, 10 ng/ml IL-6, 50 ng/ml SCF. 10 ng/ml thrombopoietin (TPO), and 20 ng/ml FLT-3 ligand. […]
In vivo drug administration in MLL-AF9 and PDX mouse model: A total of 250,000 of MLL-AF9 BM secondary mouse leukemia cells were injected retroorbitally into 6-8 weeks-old female C57BL/6 recipient mice that has been sublethally irradiated at 450 cGy. […] Mice weight was monitored every day to check for toxicity. Mice were sacrificed when moribund, and organ weights were measured for disease burden. […] Plasma was extracted from each mouse after indicated time and DEG-35 in plasma was measured using HPLC. […]

For data set [8], the target named is T1, GSPT1. Nature of the data set: Western blot of NCI-H1048 cells for GSPT1. The format is cell-based. The following applies: 24 h.
Data set [9] addresses T2, CK1α (Homo sapiens, UniProt P48729+Q96SW2).
T2 construct: expressed in transfected cells; host or cells: HEK293T (lentiviral transduction, puromycin selection, FACS sorting)
Briefly: Flow cytometry for measuring degradation, HEK293T GFP-POI reporter cells (CK1α). The format is cell-based.

Data set [10] relates to MOLM-13 cells. Nature of the data set: Survival of NSG mice transplanted with MOLM-13 cells. It counts as in vivo. The following applies: MOLM-13 transplanted mice, 223 mg/kg weekly.
Data set [11] can be described thus: Pharmacokinetics, plasma concentration in mice. The following applies: male, CD1, mouse, ip, single intraperitoneal injection at 5 mg/kg, read-out: in vivo half-life t1/2 (converted). Here is the method: as §2
Data set [12] deals with T3, IKZF2 (Homo sapiens, UniProt Q96SW2+Q9UKS7).
T3 construct: expressed in transfected cells; host or cells: HEK293T (lentiviral transduction, puromycin selection, FACS sorting)
T3 sequence (Q9UKS7 whole entry): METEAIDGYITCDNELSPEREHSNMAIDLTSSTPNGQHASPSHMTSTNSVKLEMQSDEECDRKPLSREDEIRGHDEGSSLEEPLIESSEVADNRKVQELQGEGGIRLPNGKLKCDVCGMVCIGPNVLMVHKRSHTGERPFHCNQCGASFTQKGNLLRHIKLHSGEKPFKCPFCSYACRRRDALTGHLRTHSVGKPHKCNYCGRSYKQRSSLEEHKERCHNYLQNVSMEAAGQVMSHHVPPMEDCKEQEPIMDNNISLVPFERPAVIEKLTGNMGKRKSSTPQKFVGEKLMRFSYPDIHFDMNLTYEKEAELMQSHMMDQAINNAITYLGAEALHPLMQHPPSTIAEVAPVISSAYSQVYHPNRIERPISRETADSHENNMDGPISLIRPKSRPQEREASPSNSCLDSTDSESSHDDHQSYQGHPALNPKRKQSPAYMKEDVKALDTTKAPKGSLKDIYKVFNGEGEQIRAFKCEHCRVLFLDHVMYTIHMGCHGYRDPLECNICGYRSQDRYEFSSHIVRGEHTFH
T3 sequence (Q96SW2 whole entry): as the sequence (Q96SW2 whole entry) above
T3 sequence (Q16531 whole entry partner): as the sequence (Q16531 whole entry partner) above
Nature of the data set: Flow cytometry for measuring degradation, HEK293T GFP-POI reporter cells (IKZF2). The format is cell-based.

The target in data set [13] is T4, IKZF1 (Homo sapiens, UniProt Q13422+Q96SW2).
T4 construct: expressed in transfected cells; host or cells: HEK293T (lentiviral transduction, puromycin selection, FACS sorting)
T4 sequence (Q13422 whole entry): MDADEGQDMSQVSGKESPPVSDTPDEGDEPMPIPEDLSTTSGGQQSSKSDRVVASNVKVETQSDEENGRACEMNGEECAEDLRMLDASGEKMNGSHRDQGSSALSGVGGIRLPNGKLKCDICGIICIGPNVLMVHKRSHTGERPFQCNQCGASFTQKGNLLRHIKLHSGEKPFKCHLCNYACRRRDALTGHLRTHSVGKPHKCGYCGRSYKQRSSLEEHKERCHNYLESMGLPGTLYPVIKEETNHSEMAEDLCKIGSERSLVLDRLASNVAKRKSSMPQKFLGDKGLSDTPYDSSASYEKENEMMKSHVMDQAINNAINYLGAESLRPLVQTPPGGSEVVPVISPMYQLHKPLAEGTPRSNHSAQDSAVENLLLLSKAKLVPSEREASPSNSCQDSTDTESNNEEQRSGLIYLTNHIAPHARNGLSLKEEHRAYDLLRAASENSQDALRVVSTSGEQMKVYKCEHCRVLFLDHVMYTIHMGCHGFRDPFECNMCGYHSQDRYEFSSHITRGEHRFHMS
T4 sequence (Q96SW2 whole entry): as the sequence (Q96SW2 whole entry) above
T4 sequence (Q16531 whole entry partner): as the sequence (Q16531 whole entry partner) above
Nature of the data set: Flow cytometry for measuring degradation, HEK293T GFP-POI reporter cells (IKZF1). The format is cell-based. The conditions noted are these: 24 h, HEK293T GFP reporter.

Data set [14] concerns MLL-AF9 Crbn^1391V cells. Nature of the data set: Survival of Crbn^1391V mice transplanted with MLL-AF9 Crbn^1391V cells. The format is in vivo. The conditions noted are these: 223 mg/kg weekly.
In data set [15] the test system is AML PDX cells. Nature of the data set: AML PDX model in NSG mice. It counts as in vivo. The protocol: as §2
For data set [16], the system named is endometrioid ovarian cancer cell line A2780. Nature of the data set: 5-day MTT assay in A2780 cells. The following applies: A2780, 5-day MTT assay. It counts as cell-based. Here is the method: as §1, with “[…]. […]” for “µM. Cells were cultured for 72 h at 37° C. in a 5% CO2 incubator.”
For data set [17], the system named is small cell lung cancer cell line NCI-H1048. Briefly: 5-day MTT assay in NCI-H1048 cells. The format is cell-based. The conditions noted are these: NCI-H1048, 5-day MTT assay. Here is the method:
as §1, with “[…]. […]” for “µM. Cells were cultured for 72 h at 37° C. in a 5% CO2 incubator.”

Where [18] appears, read: 100 nM, 24 h, HEK293T GFP reporter.
Setting [19] is: 1 μM, 24 h, HEK293T GFP reporter.

The source of these data is patent publication US20260021103A1, “IKZF2 AND CK1-ALPHA DEGRADING COMPOUNDS AND USES THEREOF” (President and Fellows of Harvard College, priority 2022, published 2026).

The term IC50 denotes the point on the concentration scale where inhibition reaches its midpoint. For orientation: EC50 means the concentration needed to bring the measured effect to its halfway point. The term DC50 denotes the midpoint of the concentration-degradation curve.

T2 sequence (P48729 whole entry): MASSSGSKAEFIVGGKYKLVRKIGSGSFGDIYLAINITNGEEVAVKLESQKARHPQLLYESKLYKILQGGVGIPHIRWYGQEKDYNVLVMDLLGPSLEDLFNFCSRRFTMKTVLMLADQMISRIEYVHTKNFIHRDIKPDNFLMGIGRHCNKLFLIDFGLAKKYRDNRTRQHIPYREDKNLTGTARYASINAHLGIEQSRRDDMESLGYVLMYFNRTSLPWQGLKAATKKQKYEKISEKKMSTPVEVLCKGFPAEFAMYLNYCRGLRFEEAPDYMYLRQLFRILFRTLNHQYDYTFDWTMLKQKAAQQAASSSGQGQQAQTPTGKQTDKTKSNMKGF
T2 sequence (Q96SW2 whole entry): as the sequence (Q96SW2 whole entry) above
T2 sequence (Q16531 whole entry partner): as the sequence (Q16531 whole entry partner) above

On to `COc1ccc2cc(C(=O)Nc3ccc4c(c3)CN(C3CCC(=O)NC3=O)C4=O)ccc2c1` (stereo not shown) [DEG-35, N-(2-(2,6-dioxopiperidin-3-yl)-1-oxoisoindolin-5-yl)-6-methoxy-2-naphthamide], for which, in data set [1], the concentration for half-maximal inhibition (IC50) was determined as 6 nM. In addition, the “solubility (in words)” value in [2] is “limited solubility”. The concentration giving a half-maximal response (EC50) in data set [3] (Homo sapiens, 120 h) amounted to 8 nM.
Take `COc1cccc2c1OCC(C(=O)Nc1ccc3c(c1)CN(C1CCC(=O)NC1=O)C3=O)=C2` (stereo not shown) [DEG-77, N-(2-(2,6-dioxopiperidin-3-yl)-1-oxoisoindolin-5-yl)-8-methoxy-2H-chromene-3-carboxamide]: in [4] (100 nM), the “GSPT1% degradation at 100 nM” value came out at 3.7 ± 1.3%. Further, the “GSPT1% degradation at 1 μM” value in [4] (1 μM) is 2.6 ± 1%. For the same compound, the half-life in data set [5] was greater than 6 h; in data set [11], 8 h. Further, the “WBC counts (in words)” value in [6] is “modest reduction of WBC counts”. Also, in [6], the “platelets and RBC counts (in words)” value is “remained unchanged”. The “total body weight (in words)” value in data set [7] was “without total body weight loss”. This compound also displayed a survival in [7] (vehicle treated mice 35 days) of 66 days. In [1], the IC50 came to 4 nM. Also, the “GSPT1 degradation by Western blot (in words)” value in [8] is listed as “did not affect protein levels”. Also, the “CK1α % degradation at 100 nM” value in data set [9] (setting [18]) is recorded as 68.6 ± 1%. Also, the “CK1α % degradation at 1 μM” value in data set [9] (setting [19]) is on record as 72.7 ± 0.8%. For the same compound, the 50% degradation concentration (DC50) in data set [9] (read-out: DC50 CK1α) was found to be 10 nM; in data set [12] it was 15.3 nM. Further, in [2] (DMSO), the “increase in solubility in DMSO compared to DEG-35” value is given as 10 fold. Besides, the “survival (in words)” value in [10] was “increased survival”; in [14], “significant increase in survival”; in [15] (PDX AML model, weekly from 4 weeks post-transplant, 223 mg/kg), “significant extension of survival”. Moreover, the “IKZF2% degradation at 100 nM” value in [12] (setting [18]) was 82.3 ± 0.6%. Also, the “IKZF2% degradation at 1 μM” value in [12] (setting [19]) is on record as 94.4 ± 0.1%. The “IKZF1% degradation at 100 nM” value in [13] (100 nM) is 10.7 ± 1.1%. The “IKZF1% degradation at 1 μM” value in data set [13] (1 μM) is 29 ± 0.9%. Further, the “engraftment of PDX cells in the bone marrow” value in data set [15] (after a single injection, >85% prior to treatment) is “around 40%”. Moreover, the EC50 came to 14 nM in data set [3] (Homo sapiens, 120 h) and 27 nM in data set [16] (Homo sapiens, 120 h). The “sensitivity of NCI-H1048 cells (in words)” value in [17] was “selectively sensitive to DEG-35 and not DEG-77”.
With `O=C1CCC(N2Cc3cc(CNC(=O)C(F)(F)c4ccc(Cl)cc4)ccc3C2=O)C(=O)N1` (stereo not shown) [CC-90009, reference compound], the half-maximal effective concentration (EC50) in data set [3] is 36 nM; in data set [16] it was 269 nM; in data set [17], 7 nM.
Take `COc1cc(C(=O)O)ccc1NC(=O)[C@@H]1N[C@@H](CC(C)(C)C)[C@](C#N)(c2ccc(Cl)cc2F)[C@H]1c1cccc(Cl)c1F` [idasanutlin, reference compound]: the “sensitivity of OCI-LY3 cells (in words)” value in data set [3] is on record as “very limited sensitivity”. Moreover, the “sensitivity of A2780 cells (in words)” value in data set [16] was “no demonstrable sensitivity”.
